Values quoted from earlier work in US10399716B2, “Personal care compositions and hangers” (The Procter & Gamble Company, priority 2014, dated 2019).

Log (water Solubility in mol/L) [log mol/L] | Compound
−0.64 | OCCOc1ccccc1 [Phenoxyethanol]
−1.41 | O=C(O)c1ccccc1O [Salicylic acid]
−2.46 | Oc1cc(Cl)ccc1Oc1ccc(Cl)cc1Cl [Triclosan]
−3.15 | C=CCCCCCCCCC(=O)O [Undecylenic Acid]
−0.47 | OCc1ccccc1 [benzyl Alcohol]
−3.08 | CCCCCCC(O)CO (stereo not drawn) [caprylyl glycol]
−1.91 | CCOC(=O)c1ccc(O)cc1 [ethyl paraben]
−0.83 | OCCc1ccccc1 [phenethyl alcohol]
−0.33 | C/C=C/C=C/C(=O)O [sorbic acid]
